From ChEMBL document CHEMBL1138060, “3-arylimino-2-indolones are potent and selective galanin GAL3 receptor antagonists” (J Med Chem, 2006)
The source made the active and inactive calls. The rule behind the calls is not given here.

Key:
[1] = Drug level in rat plasma at 10 mg/kg, pp after 2 hrs; type: ADME, organism-based; parameters: dose 10 mg/kg
[2] = Drug level in rat brain at 10 mg/kg, sc after 2 hrs; type: ADME, organism-based; parameters: dose 10 mg/kg, route subcutaneous; conditions: read-out: Drug uptake
[3] = Drug level in rat plasma at 10 mg/kg, sc after 2 hrs; type: ADME, organism-based; parameters: dose 10 mg/kg, route subcutaneous
[4] = Drug level in rat plasma at 30 mg/kg, ip after 2 hrs; type: ADME, organism-based; parameters: dose 30 mg/kg, route intraperitoneal
[5] = Drug level in rat brain at 30 mg/kg, ip after 2 hrs; type: ADME, organism-based; parameters: dose 30 mg/kg, route intraperitoneal; conditions: read-out: Drug uptake
[6] = Drug level in rat plasma at 30 mg/kg, ip after 4 hrs; type: ADME, organism-based; parameters: dose 30 mg/kg, route intraperitoneal
[7] = Drug level in rat brain at 30 mg/kg, ip after 4 hrs; type: ADME, organism-based; parameters: dose 30 mg/kg, route intraperitoneal; conditions: read-out: Drug uptake
[8] = molecular target: T1, 5-hydroxytryptamine receptor 4 (Homo sapiens, UniProt Q13639); assay: Binding affinity to human 5HT4
T1 sequence (Q13639 whole entry): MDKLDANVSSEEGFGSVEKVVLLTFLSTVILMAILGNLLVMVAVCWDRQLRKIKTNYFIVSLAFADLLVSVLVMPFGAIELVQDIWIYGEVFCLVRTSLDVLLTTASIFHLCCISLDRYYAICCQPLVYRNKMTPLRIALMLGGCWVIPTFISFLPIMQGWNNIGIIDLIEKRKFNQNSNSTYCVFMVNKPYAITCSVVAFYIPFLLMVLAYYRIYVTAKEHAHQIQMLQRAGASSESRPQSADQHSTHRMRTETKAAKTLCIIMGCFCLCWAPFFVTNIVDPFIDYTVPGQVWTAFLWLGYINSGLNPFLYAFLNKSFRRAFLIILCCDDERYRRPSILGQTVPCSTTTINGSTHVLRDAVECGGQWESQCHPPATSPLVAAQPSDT

[9] = molecular target: T1, 5-hydroxytryptamine receptor 4; assay: Agonist activity at human 5HT4 upto 10 uM; type: functional
[10] = molecular target: T1, 5-hydroxytryptamine receptor 4; assay: Antagonist activity against human 5HT4 upto 10 uM; type: functional
[11] = molecular target: T2, Galanin receptor type 3 (Homo sapiens, UniProt O60755); assay: Displacement of [125I]galanin from human GAL3
T2 sequence (O60755 whole entry): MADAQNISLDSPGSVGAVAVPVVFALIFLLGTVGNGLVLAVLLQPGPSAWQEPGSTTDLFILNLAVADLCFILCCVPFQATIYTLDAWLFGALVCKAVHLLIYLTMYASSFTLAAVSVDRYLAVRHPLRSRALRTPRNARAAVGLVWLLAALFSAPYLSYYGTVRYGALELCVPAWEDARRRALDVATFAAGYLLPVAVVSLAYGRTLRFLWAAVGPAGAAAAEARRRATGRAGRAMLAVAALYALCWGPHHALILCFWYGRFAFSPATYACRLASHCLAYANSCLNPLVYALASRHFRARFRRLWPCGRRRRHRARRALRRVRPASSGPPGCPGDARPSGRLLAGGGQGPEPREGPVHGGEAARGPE

O=C1/C(=N/c2cccc(C(F)(F)F)c2)c2ccccc2N1c1ccccc1
concentration at 2 h [1]: 90 ng/mL | concentration at 2 h [2]: 350 ng/g | concentration at 2 h [3]: 990 ng/mL | concentration at 2 h [4]: 780 ng/mL | concentration at 2 h [5]: 1060 ng/g | concentration at 4 h [6]: 1680 ng/mL | concentration at 4 h [7]: 1210 ng/g | Ki [8]: 72 nM | Activity [9]: inactive | Activity [10]: inactive

C#CCN1C(=O)/C(=N/c2cccc(C(F)(F)F)c2)c2ccccc21
Ki [11]: 89 nM

C=CCN1C(=O)/C(=N/c2ccc(Cl)c(Cl)c2)c2ccccc21
Ki [11]: 150 nM

O=C1Nc2ccccc2/C1=N\c1cccc(C(F)(F)F)c1
Ki [11]: 596 nM

O=C1Nc2ccccc2/C1=N\c1ccc(Cl)cc1
Ki [11]: 850 nM

O=C1Nc2ccccc2/C1=N\c1cccc(Cl)c1Cl
Ki [11]: 437 nM

COc1ccc(/N=C2/C(=O)Nc3ccccc32)cc1
Ki [11]: > 10000 nM

CCC(CC)N1C(=O)/C(=N/c2ccc(C(F)(F)F)cc2)c2ccccc21
Ki [11]: 52 nM
